# What was measured:
# [1] = tested on: fibroblasts, peripheral blood mononuclear cells (PBMCs), myoblasts; experiment: Reversal of aging (predicted age) in cultured young/old cells contacted with disulfiram plus potentiating ingredients; format: cell-based; conditions: concentrations 0.000005 to 80 μM; potentiating ingredient as high as 25 μM
# [2] = tested on: THP1 HMGB1 Lucia cells; experiment: Pyroptosis inhibition luciferase assay, LPS + nigericin, HMGB1 reporter (QUANTI-Luc); format: cell-based; conditions: compound alone; 1 μg/ml LPS 3 h, then 10 μM nigericin 3 h
# [3] = biological target: cyclo-oxygenase-2 (COX-2) (Homo sapiens, UniProt P35354); conditions: independently of NF-κB activation; cited from earlier work
# Chain of cyclo-oxygenase-2 (COX-2) (P35354 18-604, species assumed): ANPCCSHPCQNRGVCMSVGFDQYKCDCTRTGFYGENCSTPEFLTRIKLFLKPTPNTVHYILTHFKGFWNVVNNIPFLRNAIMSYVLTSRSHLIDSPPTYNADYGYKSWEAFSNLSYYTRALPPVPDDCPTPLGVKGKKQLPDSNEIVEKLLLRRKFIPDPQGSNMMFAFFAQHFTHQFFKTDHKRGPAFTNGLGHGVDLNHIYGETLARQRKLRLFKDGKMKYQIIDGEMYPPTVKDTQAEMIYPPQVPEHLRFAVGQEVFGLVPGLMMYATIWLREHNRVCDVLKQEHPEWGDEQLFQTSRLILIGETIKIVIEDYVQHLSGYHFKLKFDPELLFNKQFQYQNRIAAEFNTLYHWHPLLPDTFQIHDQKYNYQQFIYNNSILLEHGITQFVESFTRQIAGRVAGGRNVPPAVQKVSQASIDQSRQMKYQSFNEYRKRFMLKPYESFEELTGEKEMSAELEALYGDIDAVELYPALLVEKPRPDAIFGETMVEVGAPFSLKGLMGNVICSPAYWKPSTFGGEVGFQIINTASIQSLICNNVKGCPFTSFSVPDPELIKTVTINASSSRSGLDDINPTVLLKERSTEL
# [4] = tested on: neuroblastoma cells; conditions: cited from earlier work
# [5] = doses up to 750 mg/kg bw; cited from earlier work
# [6] = rats, doses up to 2000 mg/kg bw; cited from earlier work
# [7] = tested on: most gram-positive and some gram-negative bacteria; conditions: cited from earlier work
# [8] = tested on: SAMP8 mice; conditions: intragastric, 4-month-old SAMP8 mice, 2 months; cited from earlier work
# [9] = tested on: mouse skin carcinogenesis; conditions: cited from earlier work
# [10] = biological target: SIRT1 (Homo sapiens, UniProt Q96EB6); conditions: cited from earlier work
# Chain of SIRT1 (Q96EB6 whole entry, species assumed): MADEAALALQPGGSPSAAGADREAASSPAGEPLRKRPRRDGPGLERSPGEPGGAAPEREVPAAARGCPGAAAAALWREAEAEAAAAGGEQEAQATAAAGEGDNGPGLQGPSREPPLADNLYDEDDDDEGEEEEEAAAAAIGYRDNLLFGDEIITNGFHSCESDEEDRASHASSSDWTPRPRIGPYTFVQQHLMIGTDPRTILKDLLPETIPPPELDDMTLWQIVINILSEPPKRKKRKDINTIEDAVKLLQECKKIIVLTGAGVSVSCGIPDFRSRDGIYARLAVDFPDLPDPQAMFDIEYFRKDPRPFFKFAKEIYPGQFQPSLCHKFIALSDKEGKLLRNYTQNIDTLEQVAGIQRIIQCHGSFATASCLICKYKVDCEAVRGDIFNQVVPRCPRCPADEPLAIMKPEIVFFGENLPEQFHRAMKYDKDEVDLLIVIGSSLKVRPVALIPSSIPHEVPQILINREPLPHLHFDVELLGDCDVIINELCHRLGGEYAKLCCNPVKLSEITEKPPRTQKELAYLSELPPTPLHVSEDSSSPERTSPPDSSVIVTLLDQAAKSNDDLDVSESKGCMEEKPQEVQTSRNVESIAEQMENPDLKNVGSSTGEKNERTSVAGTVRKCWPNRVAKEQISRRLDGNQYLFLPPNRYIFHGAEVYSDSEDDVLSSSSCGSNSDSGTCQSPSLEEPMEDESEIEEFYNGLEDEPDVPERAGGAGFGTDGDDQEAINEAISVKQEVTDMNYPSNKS
# [11] = biological target: N-methyl-D-aspartate receptors (NMDARs); conditions: glycine-binding site; read-out: KB, competitive antagonist of NMDARs; cited from earlier work
# [12] = static toxicity tests; cited from earlier work
# [13] = biological target: transient receptor potential melastatin 8 (TRPM8) (Homo sapiens, UniProt Q7Z2W7); conditions: increase of [Ca2+]i; cited from earlier work
# Chain of transient receptor potential melastatin 8 (TRPM8) (Q7Z2W7 whole entry, species assumed): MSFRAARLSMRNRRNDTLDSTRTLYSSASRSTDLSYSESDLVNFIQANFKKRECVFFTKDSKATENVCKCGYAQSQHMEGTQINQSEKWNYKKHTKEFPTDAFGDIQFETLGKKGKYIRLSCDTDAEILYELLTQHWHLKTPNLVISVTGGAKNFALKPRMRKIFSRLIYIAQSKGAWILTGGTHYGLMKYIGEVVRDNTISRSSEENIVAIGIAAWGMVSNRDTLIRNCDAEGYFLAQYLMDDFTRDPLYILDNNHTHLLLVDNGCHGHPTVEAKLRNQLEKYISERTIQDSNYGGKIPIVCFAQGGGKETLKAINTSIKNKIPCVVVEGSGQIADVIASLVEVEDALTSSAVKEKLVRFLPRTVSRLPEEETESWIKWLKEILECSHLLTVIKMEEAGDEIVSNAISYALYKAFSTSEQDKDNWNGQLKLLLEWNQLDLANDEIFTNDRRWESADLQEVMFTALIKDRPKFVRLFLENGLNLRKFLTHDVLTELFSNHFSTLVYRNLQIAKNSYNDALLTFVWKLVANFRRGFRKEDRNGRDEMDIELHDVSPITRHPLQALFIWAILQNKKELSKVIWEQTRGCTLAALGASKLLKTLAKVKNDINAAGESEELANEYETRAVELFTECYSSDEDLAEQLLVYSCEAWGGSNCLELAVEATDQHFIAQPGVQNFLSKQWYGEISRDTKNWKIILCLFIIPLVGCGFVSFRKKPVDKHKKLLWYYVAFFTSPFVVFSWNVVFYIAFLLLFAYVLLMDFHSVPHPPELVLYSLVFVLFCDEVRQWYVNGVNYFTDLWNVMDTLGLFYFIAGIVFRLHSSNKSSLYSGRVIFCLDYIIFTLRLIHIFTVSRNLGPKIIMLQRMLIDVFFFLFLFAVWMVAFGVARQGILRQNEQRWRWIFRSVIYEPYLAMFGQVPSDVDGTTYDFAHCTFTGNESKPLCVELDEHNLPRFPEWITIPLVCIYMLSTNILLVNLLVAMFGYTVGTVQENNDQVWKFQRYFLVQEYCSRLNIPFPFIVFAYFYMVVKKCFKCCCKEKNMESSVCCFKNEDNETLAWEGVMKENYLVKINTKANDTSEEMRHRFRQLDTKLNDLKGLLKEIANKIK
# [14] = 510 mg/day, patients, cited from earlier work
# [15] = tested on: carrageenan; conditions: 25, 50 or 100 mg/kg, i.p., immediately and 2 h after carrageenan; cited from earlier work
# [16] = tested on: fever induced by lipopolysaccharide (LPS); conditions: 50 or 100 mg/kg, i.p., 0 and 2 h; rats; cited from earlier work
# [17] = biological target: CYP2C8 (Homo sapiens, UniProt P10632); conditions: cited from earlier work
# Chain of CYP2C8 (P10632 whole entry): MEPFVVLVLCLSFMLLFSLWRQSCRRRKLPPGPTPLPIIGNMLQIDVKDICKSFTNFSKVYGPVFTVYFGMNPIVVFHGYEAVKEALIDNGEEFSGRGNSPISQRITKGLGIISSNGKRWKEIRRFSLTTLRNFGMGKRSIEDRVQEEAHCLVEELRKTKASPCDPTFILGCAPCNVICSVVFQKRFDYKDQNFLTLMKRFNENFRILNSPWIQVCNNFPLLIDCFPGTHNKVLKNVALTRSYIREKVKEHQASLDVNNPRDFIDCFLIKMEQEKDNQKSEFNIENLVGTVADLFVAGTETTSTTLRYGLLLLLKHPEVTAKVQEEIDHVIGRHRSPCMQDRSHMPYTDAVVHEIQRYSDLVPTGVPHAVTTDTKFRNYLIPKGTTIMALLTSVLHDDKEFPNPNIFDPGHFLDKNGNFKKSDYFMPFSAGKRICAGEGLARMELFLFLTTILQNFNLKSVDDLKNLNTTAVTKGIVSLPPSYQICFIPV
# [18] = biological target: CYP2C9 (Homo sapiens, UniProt P11712); conditions: cited from earlier work
# Chain of CYP2C9 (P11712 whole entry, species assumed): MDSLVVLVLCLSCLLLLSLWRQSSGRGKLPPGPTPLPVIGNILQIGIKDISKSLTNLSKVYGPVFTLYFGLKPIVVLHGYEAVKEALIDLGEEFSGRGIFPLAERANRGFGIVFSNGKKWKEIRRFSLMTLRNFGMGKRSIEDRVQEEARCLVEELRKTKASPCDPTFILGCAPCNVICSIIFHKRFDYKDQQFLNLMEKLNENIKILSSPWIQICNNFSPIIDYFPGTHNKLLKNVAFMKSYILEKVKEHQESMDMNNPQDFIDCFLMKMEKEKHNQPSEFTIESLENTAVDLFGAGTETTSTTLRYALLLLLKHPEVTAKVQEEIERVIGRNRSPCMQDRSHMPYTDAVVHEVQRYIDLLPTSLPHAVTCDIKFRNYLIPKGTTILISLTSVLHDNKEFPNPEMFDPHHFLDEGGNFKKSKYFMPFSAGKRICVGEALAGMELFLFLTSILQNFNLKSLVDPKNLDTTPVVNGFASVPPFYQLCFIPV
# [19] = biological target: CYP2C19 (Homo sapiens, UniProt P33261); conditions: cited from earlier work
# Chain of CYP2C19 (P33261 whole entry, species assumed): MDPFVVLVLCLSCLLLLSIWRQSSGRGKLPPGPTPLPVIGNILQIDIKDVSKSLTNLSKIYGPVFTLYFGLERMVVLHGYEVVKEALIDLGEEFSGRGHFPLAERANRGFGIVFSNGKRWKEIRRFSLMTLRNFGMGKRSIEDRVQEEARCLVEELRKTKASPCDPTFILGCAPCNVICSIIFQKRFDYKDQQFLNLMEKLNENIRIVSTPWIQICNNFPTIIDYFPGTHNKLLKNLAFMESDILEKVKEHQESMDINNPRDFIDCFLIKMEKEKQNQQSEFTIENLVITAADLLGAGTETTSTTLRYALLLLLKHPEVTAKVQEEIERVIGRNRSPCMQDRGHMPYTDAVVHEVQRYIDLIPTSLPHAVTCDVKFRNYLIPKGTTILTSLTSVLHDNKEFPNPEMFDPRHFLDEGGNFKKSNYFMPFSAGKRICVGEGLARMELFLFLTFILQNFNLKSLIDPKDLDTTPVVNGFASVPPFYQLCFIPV
# [20] = tested on: severe sepsis; conditions: patients with severe sepsis, placebo cohort 24%; cited from earlier work
# [21] = tested on: brain blood flow; conditions: 450 mg/kg during a 15-minute period, after simvastatin 2 mg/kg subcutaneously daily for 14 days, SV-129 mice; cited from earlier work
# [22] = tested on: influenza virus H1N1; conditions: cited from earlier work
# [23] = tested on: Spodoptera litum larvae; conditions: cited from earlier work
# [24] = tested on: ProDH (proline dehydrogenase); conditions: competitive; plants; cited from earlier work
molecule,measurement,setting,value
"CC(C)(C)c1cc(O)ccc1O [TBHQ, tert-Butylhydroquinone]",ability in combination with disulfiram to reverse aging in the cells,[1],identified as a potentiating ingredient
same,pyroptosis inhibition (HMGB1 luciferase reporter in supernatant),[2],no effect on pyroptosis inhibition or a clear IC50
O=C(O)c1ccccc1O [Salicylic acid],inhibition of COX-2 activity,[3],Salicylic acid (2-Hydroxybenzoic acid) inhibits cyclo-oxygenase-2
COc1cc(CCC(C)=O)ccc1O [Zingerone],growth of neuroblastoma cells,[4],"agent, and inhibits the growth of neuroblastoma cells."
Rebaudioside A,"genotoxic effects, mouse micronucleus test",[5],rebaudioside A do not cause any genotoxic effects at any of the doses
same,"genotoxic effects, unscheduled DNA synthesis test",[6],rebaudioside A do not cause any genotoxic effects at any of the doses
O=C(O)c1ccc(O)cc1 [4-Hydroxybenzoic acid],"IC50, inhibition of most gram-positive and some gram-negative bacteria",[7],IC50 of 160 μg/mL.
CCCCC1OC(=O)c2ccccc21 (centres unmarked) [Butylphthalide],spatial learning and memory ability,[8],2 months significantly improved spatial learning and memory ability.
CCCCCCCC(=O)CCc1ccc(O)c(OC)c1 [Paradol],inhibition of tumor promotion,[9],Zingiberaceae plants. Paradol is an effective inhibitor of tumor promotion
NC(=O)c1cccnc1 [Nicotinamide],inhibition of SIRT1,[10],reactions. Nicotinamide is an inhibitor of SIRT1.
N[C@@H](Cc1ccccc1)C(=O)O [L-Phenylalanine],Kb,[11],573 µM
CCCCCCCCC(=O)NCc1ccc(O)c(OC)c1 [Nonivamide],4d-EC50,[12],5.1 mg/L in static toxicity tests.
"CC1CCC(C(C)C)C(O)C1 (single isomer, unassigned; (-)) [(−)-Menthol]",binding and activation of TRPM8,[13],(−)-Menthol is a key component of peppermint oil that binds and activates
C[N+](C)(C)C[C@H](O)CC(=O)[O-] [L-Carnitine],total time for dozing off during the daytime,[14]; versus placebo-treated periods,L-carnitine (Levocarnitine) treatment significantly improved the total
same,serum acylcarnitine levels,[14],L-carnitine (Levocarnitine) efficiently increased serum acylcarnitine
same,serum triglycerides concentration,[14],"levels, and reduced serum triglycerides concentration."
Cc1cc2nc3c(=O)[nH]c(=O)nc-3n(C[C@H](O)[C@H](O)[C@H](O)CO)c2cc1C [Riboflavin],antiedema and antinociceptive effects,[15],induced antiedema and antinociceptive effects. The antinociceptive effect
same,effect on LPS-induced fever,[16],inhibited the fever induced by lipopolysaccharide (LPS) in rats.
C[C@@H]1CC[C@H]2C(C)(C)[C@H]3C[C@@]12CC[C@@]3(C)O [Cedrol],inhibitory effect on CYP2C8,[17],weak
same,inhibitory effect on CYP2C9,[18],weak
same,inhibitory effect on CYP2C19,[19],weak
N=C(N)NCCC[C@H](N)C(=O)O [L-Arginine],"Resolution of shock at 72 hours, share of patients",[20],72 hours is achieved by 40% and 24% of the patients in the L-Arginine
same,hyperemia,[21],minute period) amplifies and sustains the hyperemia (38%) and increases
OC[C@H]1O[C@@H]2O[C@H]3[C@H](O)[C@@H](O)[C@@H](O[C@H]4[C@H](O)[C@@H](O)[C@@H](O[C@H]5[C@H](O)[C@@H](O)[C@@H](O[C@H]6[C@H](O)[C@@H](O)[C@@H](O[C@H]7[C@H](O)[C@@H](O)[C@@H](O[C@H]8[C@H](O)[C@@H](O)[C@@H](O[C@H]1[C@H](O)[C@H]2O)O[C@@H]8CO)O[C@@H]7CO)O[C@@H]6CO)O[C@@H]5CO)O[C@@H]4CO)O[C@@H]3CO [β-Cyclodextrin],anti-influenza virus activity,[22],Cyclodextrin has anti-influenza virus H1N1 activities.
CCCC=C1OC(=O)c2ccccc21 [3-Butylidenephthalide],"LC50, larvicidal activity",[23],activity (LC50 of 1.56 mg/g for Spodoptera litum larvae).
D-(-)-Lactic acid,inhibition of ProDH,[24],inhibitor of ProDH (proline dehydrogenase) in plants.
